# Assay results taken from patent publication US20040247699A1, “Method for the prevention or treatment of overweight in mammals” (priority 2002, published 2004).
# Assay: Effects on physical activity (ambulatory counts)
# Settings: 12.5 mg caffeine per kg rat oral, period when rats are normally asleep
# Description: In the study as described in example 1, the physical activity of the animals was determined by monitoring ambulatory counts.
# The effects of caffeine on physical activity was tested in rats and compared to placebo (water). In a placebo controlled cross-over design as described in example 1, the effects of administration of either 12.5 mg caffeine per kg of rat or water on physical activity was determined. Physical activity of the animals was determined by monitoring ambulatory counts.
# Results are shown as the average ambulatory counts per 26 minutes.
compound,measurement,value
Cn1c(=O)c2c(ncn2C)n(C)c1=O [caffeine],ambulatory counts per 26 minutes compared to placebo,ambulatory counts increase
